# Reference: patent US9056087B2, “Methods of healing or preventing inflammation, damage and other changes that occur prior to, during or immediately after a myocardial event with thymosin beta 4, analogues, isoforms and other derivatives” (REGENERX BIOPHARMACEUTICALS, INC., priority 2001, dated 2015)
# Test system: cardiac endothelial cells
# Experiment: collagen gel assay: transformation of cardiac endothelial cells to mesenchymal cells
# Format: cell-based
# Settings: at physiological concentrations (Tβ4)
# Protocol: Synthetic Tβ4 and an antibody to Tβ4 was provided by RegeneRx Biopharmaceuticals, Inc. (3 Bethesda Metro Center, Suite 700, Bethesda, Md. 20814) and were tested in a collagen gel assay to determine their effects on the Transformation of cardiac endothelial cells to mesenchymal cells. It is Well established that development of heart valves and other cardiac tissue are formed by epithelial-mesenchymal transformation and that defects in this process can cause serious cardiovascular malformation and injury during development and throughout life. […] Transformation of atrioventricular endocardium into invasive mesenchyme is critical in the formation and maintenance of normal cardiac tissue and in the formation of heart valves.
substance,measurement,value
"Thymosin β4 (SDKPDMAEIEKFDKSKLKKTETQEKNPLPSKETIEQEKQAGES; not fully specified; Thymosin beta-4; UniProt P62328 2-44, looked up) [Tβ4, synthetic Tβ4 provided by RegeneRx]",effect on the transformation of endocardial cells to mesenchymal cells in the collagen gel assay,markedly enhances the transformation
